The source of these data is patent US20200399238A1, “THERAPEUTIC AURONES” (MIDDLE TENNESSEE STATE UNIVERSITY, priority 2016, published 2020).

Read-outs that look alike come from different tables or passages of the source.

The subject of assay [1] is Leishmania amazonensis promastigotes expressing beta-lactamase. Nature of the assay: microbe, parasite or virus in culture. It counts as cell-based. The following applies: Leishmania amazonensis, read-out: IC50 L. amaz.
Assay [2] deals with rat skeletal muscle cell line, L6. The experiment in a line: cells. The following applies: Rattus norvegicus; Table 1; read-out: IC50 Toxicity (L6). It counts as cell-based.
The subject of assay [3] is Trypanosoma cruzi Tulahuen cells expressing beta-galactosidase. Nature of the assay: T. cruzi intracellular assay (beta-galactosidase, L6 host cells). The settings on record: Trypanosoma cruzi, TULAHUEN, intracellular assay.
Another assay deals with NF-κB-dependent promoter. Nature of the assay: pNF-κB-Luc luciferase assay, RAW 264.7. Format: cell-based, murine. The following applies: 50 μM, 1 h pre-treatment, LPS 6 h, RAW264.7. The procedure:
Cells were lysed in 250 μl/well of luminometry lysis buffer [25 mM Tris-phosphate, 1%(w/v) BSA, 0.025%(w/v) dithiothreitol (DTT), 1% Triton X-100, 15%(v/v) glycerol, 0.1 mM EDTA, 8 mM MgCl2, 1× protease inhibitor cocktail, and 1 mM phenylmethylsulfonyl fluoride] and incubated on a shaking table at 200 rpm for 15 min. A volume of 10 μl of 25 mM ATP was added to each well, and the samples were transferred in duplicates of 100 μl to an opaque-white 96-well plate. A volume of 20 μl of 10 mM sodium pyrophosphate was added to each well prior to the addition of 100 μl of 2 mM D-luciferin. Luminescence was quantified using a SpectraMax M5 plate reader using SoftMax Pro 6.3 software (Molecular Devices, Sunnyvale, Calif., USA).

The next assay relates to TNFα mRNA. Nature of the assay: Quantitative RT-PCR of TNF-α transcription, THP-1. Format: cell-based, human. The following applies: 80 μM pre-treatment, LPS 4 h, differentiated THP-1. On the procedure:
Transcription of TNF-α (NM 000594) and beta-2-microglobin, 132M (NM 004048), in 2.5×10^5 PMA-differentiated THP1 cells was investigated in cells without treatment, stimulated with […] Salmonella LPS, or pretreated for 1 hour with 1 μM dexamethasone or 80 μM aurone 1 followed by 4 hours of incubation with 20 ng/ml LPS. Total RNA was purified after 4 hours of LPS stimulation using the Maxwell 16 LEV simplyRNA Tissue Kit (Promega, WI, USA) per manufacturer's instructions (Jeffries, Kiss et al. 2014). Total RNA concentrations and the 260/280 nm ratios of each RNA sample were assessed using a NanoDrop 2000 UV-Vis spectrophotometer (Thermo Fisher Scientific, MA, USA). SYBR® FAST One-step qRT-PCR (KAPA Biosystems, MA, USA) was used to examine gene transcription after reaction optimization.
QuantiTect® Primer Assay TNF (QT01079561) and B2M (Q300088935) primer (Qiagen, CA, USA) optimization studies, including melt curve analyses to confirm primer specificity and efficiency, were conducted to find appropriate running conditions (Fajardy, Moitrot et al. 2009). Briefly, the optimized conditions were 1 ng of total RNA added to 20 μl of reaction including 150 nM of forward and reverse primers. […] The fold change was calculated by using 2^−ΔΔct normalized to LPS alone (Schmittgen and Livak 2008).

For the next assay, the system named is iNOS. The experiment in a line: Western blot, iNOS expression, RAW 264.7. The settings on record: LPS-stimulated RAW264.7, 24 h.
Another assay has as its system IKKβ, IκBα, p65. The experiment in a line: Western blot, IKK / IκBα / p65 phosphorylation, RAW 264.7. The settings on record: 12.5, 25, 50 μM, LPS 15 min, dose-dependent.

What is called IC50 is the concentration that inhibits the measured activity by half.

Protocol for IKKβ, IκBα, p65: (§1) U0126 is a compound that inhibits MEK1/2 and was used as positive control for ERK phosphorylation inhibition (Hotokezaka, Sakai et al. 2002). Cells were lysed with radio-immunoprecipitation assay (RIPA) lysis buffer that contained a protease and phosphatase inhibitor cocktail. Cell lysates were then tested for protein concentration using a BCA protein assay and diluted with RIPA lysis buffer to normalize protein concentration in all samples. Lysates were mixed with sample loading buffer containing bromophenol blue, glycerol, SDS, and 2-mercaptoethanol. The separated proteins were then transferred onto a nitrocellulose membrane and blocked with 5% BSA in IX Tris-buffered saline with 0.1% Tween-20 for 1 h. The blots were incubated with primary antibodies at 4° C. overnight followed by incubation with HRP-conjugated secondary antibodies for 2 h at 22° C. The membranes were developed by addition of ECL substrate and images were collected with a ChemiDoc XRS+ system chemiluminescence imager (Bio-Rad, Hercules, Calif., USA). Western blot band intensity was quantified using Image Lab software (Bio-Rad, Hercules, Calif., USA). […]
Protocol for iNOS: as §1

Regarding `COc1ccc(/C=C2\Oc3c(ccc(O)c3O)C2=O)cc1O` [Aurone 1009, (Z)-6,7-dihydroxy-2-(3-hydroxy-4-methoxybenzylidene)benzofuran-3(2H)-one], the IC50 in assay [1] is 9.63 µM; in assay [2] it was 45 µM; in assay [3] (read-out: IC50 T. cruzi, Table 1, mean of 2(+) trials (^c one trial)), > 50 µM; in assay [3] (read-out: IC50 T. cruzi, Table 2, mean of 2(+) independent trials), > 50 µM.

With `O=C1/C(=C/c2ccc(CO)o2)Oc2ccccc21` [aurone 1], the “LPS-induced luciferase expression (pNF-κB-Luc)” value in the assay with NF-κB-dependent promoter is given as “significantly inhibit LPS-induced luciferase expression”. Further, the “reduction of TNFα mRNA levels” value with TNFα mRNA is 49%. Besides, the results for the “reduction in iNOS levels” value with iNOS (50 μM) and in the assay on iNOS (100 μM) were 31.7% and 57.5%, respectively. In addition, in the assay with IKKβ, IκBα, p65, the “phosphorylation of IKKβ, IκBα and p65” value was “suppress the phosphorylation of all three proteins”.
